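The compound was tested at five concentrations on cells cultured in 96-well plates, with a 48-hour exposure period. At the GI50, growth is halved.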 Active and inactive are the calls of the source. Cut-off read from the data, not from the text of the source: active = GI50 up to about 1.1 µM and inactive = higher.

Test systems include HCC 2998; HOP-62; SF-539; UACC-62; SK-MEL-28; M14; BT-549; OVCAR-8; SF-268; COLO 205; OVCAR-4; SNB-19; MCF7; OVCAR-3; RXF 393; Malme-3M; ACHN; NCI-H522; HT-29; UACC-257.
Holding throughout (assay): NCI-60 cell line screen, 48 h

Consider `O=C1Nc2ccc(Br)cc2C1=Nc1cccnc1`, for which the GI50 is 20.6 µM (inactive) in the assay on HCC 2998; 25 µM (inactive) in the assay with HOP-62; 16.5 µM (inactive) with SF-539; 17.3 µM (inactive) in the assay on UACC-62; 19.5 µM (inactive) with SK-MEL-28; 15.7 µM (inactive) in the assay on M14. Besides, the GI50 was 17.1 µM (inactive) with BT-549; 25.3 µM (inactive) with OVCAR-8; 27.7 µM (inactive) in the assay with SF-268; 67.3 µM (inactive) with COLO 205; 7.23 µM (inactive) in the assay with OVCAR-4; 41.2 µM (inactive) in the assay on SNB-19. The GI50 is 22.7 µM (inactive) in the assay with MCF7; 18.9 µM (inactive) in the assay on OVCAR-3; 15.2 µM (inactive) with RXF 393; 22.3 µM (inactive) in the assay on Malme-3M; 18.3 µM (inactive) in the assay with ACHN; 13.2 µM (inactive) in the assay on NCI-H522. For the same molecule, the GI50 is 21 µM (inactive) with HT-29 and 21.4 µM (inactive) in the assay with UACC-257.
With `Nc1nc(Cl)cc(NCC2(CO)CCC(CCc3ccccc3)C2)n1` (stereo not given), the GI50 in the assay on HCC 2998 was 17.5 µM (inactive); in the assay on HOP-62, 1.05 µM (active); in the assay with SF-539 it was 17.9 µM (inactive); with UACC-62 it was 13.2 µM (inactive); in the assay on SK-MEL-28, 19.6 µM (inactive); with M14 it was 13.7 µM (inactive). The GI50 in the assay with BT-549 was 14 µM (inactive); in the assay on OVCAR-8, 14.6 µM (inactive); with SF-268, 16.6 µM (inactive); with COLO 205, 12.8 µM (inactive); in the assay on OVCAR-4, 11.9 µM (inactive); with SNB-19, 15.9 µM (inactive). The GI50 was 11.7 µM (inactive) in the assay on MCF7; 7.45 µM (inactive) in the assay with OVCAR-3; 14.8 µM (inactive) in the assay with RXF 393; 16 µM (inactive) in the assay with Malme-3M; 13.8 µM (inactive) with ACHN; 11.4 µM (inactive) in the assay with NCI-H522. Also, the results for the GI50 in the assay with HT-29 and in the assay on UACC-257 were 7.94 µM (inactive) and 6.22 µM (inactive), respectively.
`Cc1ccc(CNNC(=O)c2cc[n+]([BH2-]C#N)cc2)cc1`: the GI50 in the assay with HCC 2998 is > 100 µM (inactive); with HOP-62, > 100 µM (inactive); in the assay on SF-539, > 100 µM (inactive); in the assay on UACC-62 it was 17.1 µM (inactive); in the assay with SK-MEL-28 it was > 100 µM (inactive); with M14, > 100 µM (inactive). Besides, the GI50 with BT-549, in the assay on OVCAR-8, in the assay with SF-268, with COLO 205, in the assay on OVCAR-4 and with SNB-19 was > 100 µM (inactive) throughout. The GI50 in the assay on MCF7 was 18.1 µM (inactive); in the assay with OVCAR-3, > 100 µM (inactive); in the assay on RXF 393 it was > 100 µM (inactive); in the assay with Malme-3M, > 100 µM (inactive); in the assay on ACHN, 11.3 µM (inactive); in the assay on NCI-H522 it was 95.5 µM (inactive). Moreover, the GI50 with HT-29 and in the assay on UACC-257 was > 100 µM (inactive) throughout.
`O=C1c2ccccc2-n2c1nc1ccc([N+](=O)[O-])cc1c2=O`: the GI50 in the assay on HCC 2998 was > 100 µM (inactive); in the assay on HOP-62, 30.6 µM (inactive); in the assay on SF-539, > 100 µM (inactive); in the assay with UACC-62, 44.2 µM (inactive); in the assay with SK-MEL-28, 55.1 µM (inactive); in the assay on M14, 91.8 µM (inactive). For the same molecule, the GI50 in the assay with BT-549 is > 100 µM (inactive); in the assay on OVCAR-8, 21.3 µM (inactive); in the assay with SF-268, 26.4 µM (inactive); in the assay on COLO 205, > 100 µM (inactive); in the assay with OVCAR-4 it was > 10 µM (inactive); with SNB-19 it was > 100 µM (inactive). For the same molecule, the GI50 is 11.7 µM (inactive) in the assay on MCF7; 21.1 µM (inactive) with OVCAR-3; 60.4 µM (inactive) with RXF 393; 51.5 µM (inactive) with Malme-3M; 58.9 µM (inactive) in the assay on ACHN; 82.6 µM (inactive) with NCI-H522. The GI50 in the assay on HT-29 is > 10 µM (inactive); in the assay on UACC-257, 89.7 µM (inactive).

For the origin of these results see ChEMBL document CHEMBL1201862, “PubChem BioAssay data set” (2004).
